Reference: US9133131B2 (Purdue Pharma L.P., priority 2011, dated 2015)

Tests used:
[1] = molecular target: human Nav1.7 (Homo sapiens (Human), UniProt Q15858); experiment: FLIPR sodium dye assay for sodium channel blocking activity; format: cell-based; conditions: recombinant human Nav1.7 in HEK293 cells
Source text: For dominant selection of the Nav1.7-expressing clones, the expression plasmid co-expressed the neomycin resistance gene. […] Recombinant beta and gamma subunits were not introduced into this cell line. Additional cell lines expressing recombinant Nav1.7 cloned from other species can also be used, alone or in combination with various beta subunits, gamma subunits or chaperones.
Cell maintenance: Unless otherwise noted, cell culture reagents were purchased from Mediatech of Herndon, Va. The recombinant Nav1.7/HEK293 cells were routinely cultured in growth medium consisting of Dulbecco's […] essential medium containing 10% fetal bovine serum (FBS, Hyclone, Thermo Fisher Scientific, Logan, Utah), 100 U/mL penicillin, 100 μg/mL streptomycin, 2-4 mM L-glutamine, and […] G418. For natural, non-recombinant cell lines, the selective antibiotic was omitted, and additional media formulations can be applied as needed.
The intensity of this emission, but not the wavelength range, is increased when the dye is exposed to Na^+ ions, which it can bind with partial selectivity. Cells expressing Nav1.7 or other sodium channels were loaded with the CoroNa™ Green dye immediately in advance of the fluorescence assay, and then, after agonist stimulation, the mobilization of Na^+ ions was detected as the Na^+ ions flowed from the extracellular fluid into the cytoplasm through the activated sodium channel pores. The dye was stored in the dark as a lyophilized powder, and then an aliquot was dissolved immediately before the cell loading procedure, according to the instructions of the manufacturer to a stock concentration of 10 mM in DMSO. It was then diluted in the assay buffer to a 4× concentrated working solution, so that the final concentration of dye in the cell loading buffer was 5 μM.
These scorpion toxins inhibit the fast inactivation of their cognate target channels. Stock solutions of the agonists were prepared to 40 mM in DMSO (veratridine) and 1 mg/mL in dH2O (scorpion venom), and then diluted to make a 4× or 2× stock (depending on the particular assay) in assay buffer, the final concentration being 100 μM (veratridine) and 10 μg/mL (scorpion venom). Both of the agonists were purchased from Sigma Aldrich, St. Louis, Mo.
Test Compounds: Test compounds were dissolved in DMSO to yield 10 mM stock solutions. […] If a particular test article appeared to be especially potent, then the concentration curve was adjusted, e.g., to 10-fold lower concentrations, in order to perform the dose-response in a more relevant concentration range. Compound dilutions were added during the dye-loading and pre-stimulation step, and then again during the fluorescence assay, early in the kinetic read.
Data Analysis: The data were analyzed according to methods known to those skilled in the art or using the GraphPad® Prism version 4.0 or higher, Program (available from GraphPad Software, San Diego, Calif.) to determine the IC50 value for the test article. At least one standard reference compound was evaluated during each experiment.
FLIPR® or FLIPR^TETRA® sodium dye assay with KCl and test article pre-incubation: Cells were prepared by plating the recombinant HEK293 cells or other host cells expressing either recombinant or non-recombinant, native, Nav1.7 alpha subunit, alone or in combination with various beta and gamma subunits at a density of ˜40,000 cells/well into a 96-well black, clear-bottom, PDL-coated plate. The assay can be adapted to 384-well or 1,536-well format, if desired, using proportionately less cells and media. The plate was then incubated in growth media, with or without selective antibiotic, overnight at 37° C. at 5% CO2, 95% humidity, in preparation for the assay. For counter-screens of other voltage-gated sodium channels, the procedure was very similar, though optimal densities of cells, media and subsequent assay components can be fine-tuned for the particular cell line or isoform.

[2] = molecular target: hNav1.7 (Homo sapiens (Human), UniProt Q15858); experiment: Electrophysiology (EP) whole-cell patch clamp assay; format: cell-based; conditions: hNav1.7 HEK-293 cells; for Ki: affinity for the inactivated state of the channel, read-out: Nav1.7 Activity EP assay Ki; for Kd: resting block dissociation constant, read-out: Nav1.7 Activity EP assay Kr
Sequence of hNav1.7 (Q15858 other isoform, or with tags, fused parts or gaps): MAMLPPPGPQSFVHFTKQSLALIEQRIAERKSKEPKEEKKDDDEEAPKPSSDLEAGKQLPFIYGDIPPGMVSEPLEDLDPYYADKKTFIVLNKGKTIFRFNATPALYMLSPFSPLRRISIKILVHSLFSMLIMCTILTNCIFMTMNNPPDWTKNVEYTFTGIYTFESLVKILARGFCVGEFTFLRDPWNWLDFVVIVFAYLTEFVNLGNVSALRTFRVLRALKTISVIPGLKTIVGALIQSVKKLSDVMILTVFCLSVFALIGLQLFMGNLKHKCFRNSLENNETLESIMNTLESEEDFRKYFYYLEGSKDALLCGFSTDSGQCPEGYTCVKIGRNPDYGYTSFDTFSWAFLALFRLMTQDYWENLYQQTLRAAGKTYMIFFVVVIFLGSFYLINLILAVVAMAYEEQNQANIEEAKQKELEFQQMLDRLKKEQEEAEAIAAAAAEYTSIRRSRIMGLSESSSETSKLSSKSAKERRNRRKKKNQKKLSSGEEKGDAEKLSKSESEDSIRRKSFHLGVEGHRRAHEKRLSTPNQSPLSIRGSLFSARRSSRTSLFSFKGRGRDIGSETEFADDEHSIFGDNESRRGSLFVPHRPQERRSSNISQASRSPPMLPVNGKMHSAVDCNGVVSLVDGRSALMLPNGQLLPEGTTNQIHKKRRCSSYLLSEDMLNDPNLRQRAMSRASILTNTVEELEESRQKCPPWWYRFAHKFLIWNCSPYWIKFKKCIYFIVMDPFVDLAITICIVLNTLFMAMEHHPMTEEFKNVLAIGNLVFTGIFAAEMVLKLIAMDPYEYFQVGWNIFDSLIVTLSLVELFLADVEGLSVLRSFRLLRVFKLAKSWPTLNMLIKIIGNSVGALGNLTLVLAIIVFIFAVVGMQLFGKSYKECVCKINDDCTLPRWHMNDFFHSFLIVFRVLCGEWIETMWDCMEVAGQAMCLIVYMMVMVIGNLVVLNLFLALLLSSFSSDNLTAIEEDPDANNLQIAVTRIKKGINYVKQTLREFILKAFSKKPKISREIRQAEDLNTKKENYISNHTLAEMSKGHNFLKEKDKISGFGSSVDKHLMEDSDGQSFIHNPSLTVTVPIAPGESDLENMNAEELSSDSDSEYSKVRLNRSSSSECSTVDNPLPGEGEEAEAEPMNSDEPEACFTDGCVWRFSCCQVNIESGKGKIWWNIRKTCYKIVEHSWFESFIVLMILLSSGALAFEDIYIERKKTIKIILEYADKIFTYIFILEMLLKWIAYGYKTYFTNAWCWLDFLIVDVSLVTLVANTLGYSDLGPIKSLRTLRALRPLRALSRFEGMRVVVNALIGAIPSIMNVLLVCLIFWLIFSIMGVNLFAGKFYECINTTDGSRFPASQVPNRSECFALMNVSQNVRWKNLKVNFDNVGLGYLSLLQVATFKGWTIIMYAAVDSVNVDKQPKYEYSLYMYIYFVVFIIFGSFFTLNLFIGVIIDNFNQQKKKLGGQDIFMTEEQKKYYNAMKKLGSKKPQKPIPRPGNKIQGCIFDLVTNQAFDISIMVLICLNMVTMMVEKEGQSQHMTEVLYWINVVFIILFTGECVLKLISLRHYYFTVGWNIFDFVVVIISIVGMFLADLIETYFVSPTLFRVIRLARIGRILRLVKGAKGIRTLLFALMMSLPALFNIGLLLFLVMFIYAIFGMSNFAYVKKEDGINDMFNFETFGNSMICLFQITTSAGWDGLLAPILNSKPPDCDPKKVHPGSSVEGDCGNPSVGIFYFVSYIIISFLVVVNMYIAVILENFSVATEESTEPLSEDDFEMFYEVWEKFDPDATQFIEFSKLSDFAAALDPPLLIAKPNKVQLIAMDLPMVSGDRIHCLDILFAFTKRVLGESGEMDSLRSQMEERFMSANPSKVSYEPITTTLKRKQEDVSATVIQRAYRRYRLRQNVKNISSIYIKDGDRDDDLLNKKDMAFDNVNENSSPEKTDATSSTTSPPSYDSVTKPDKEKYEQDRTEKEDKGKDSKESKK
Procedure: Cells: The hNav1.7 expressing HEK-293 cells were plated on 35 mm culture dishes pre-coated with poly-D-lysine in standard DMEM culture media (Mediatech, Inc., Herndon, Va.) and incubated in a 5% CO2 incubator at 37° C. Cultured cells were used approximately 12-48 hours after plating.
Electrophysiology: On the day of experimentation, the 35 mm dish was placed on the stage of an inverted microscope equipped with a perfusion system that continuously perfuses the culture dish with fresh recording media. A gravity driven superfusion system was used to apply test solutions directly to the cell under evaluation. This system consists of an array of glass pipette glass connected to a motorized horizontal translator. The outlet of the shooter was positioned approximately 100 μm from the cell of interest.
Whole cell currents were recorded using the whole-cell patch clamp configuration using an Axopatch 200B amplifier (Axon Instruments, Foster City Calif.), 1322A A/D converter (Axon Instruments) and pClamp software (v. 8; Axon Instruments) and stored on a personal computer. Gigaseals were formed and the whole-cell configuration was established in voltage clamp mode, and membrane currents generated by hNav1.7 were recorded in gap-free mode. Borosilicate glass pipettes have resistance values between 1.5 and 2.0 MΩ when filled with pipette solution and series resistance (<5 MΩ) was compensated 75-80%. Signals were sampled at 50 kHz and low pass filtered at 3 kHz.
Voltage protocols: After establishing the whole-cell configuration in voltage clamp mode, voltage protocols were run to establish the 1) test potential, 2) holding potential, and 3) the conditioning potential for each cell.
After establishing the whole-cell configuration in voltage clamp mode, a standard I-V protocol was run to determine the potential at which the maximal current (Imax) is elicited. This potential was the test potential (Vt). To determine a conditioning potential at which 100% of channels were in the inactivated state, a standard steady-state inactivation (SSIN) protocol was run using a series of fifteen 100 ms-long depolarizing prepulses, incrementing in 10 mV steps, immediately followed by a 5 ms testing pulse, Vt, to Vmax. This protocol also permitted determination of the holding potential at which all channels are in the resting state.
For compounds causing significant retardation of recovery from inactivation, an estimate of the affinity for the inactivated state of the channel (Ki) was generated using the following protocol. From the negative, no residual inactivation, holding potential, the cell was depolarized to the conditioning voltage for 2-5 seconds, returned to the negative holding potential for 10-20 ms to relieve fast inactivation and then depolarized to the test potential for ˜15 ms. This voltage protocol was repeated every 10-15 seconds, first to establish a baseline in the absence of the test compound, then in the presence of the test compound.
After a stable baseline was established, the test compound was applied and block of the current elicited by the test pulse assessed. In some cases, multiple cumulative concentrations were applied to identify a concentration that blocked between 40-60% of this current. Washout of the compound was attempted by superfusing with control solution once steady-state block was observed. An estimate of the Ki was calculated as follows: Ki=[drug]*{FR/(1−FR)}, Eq. 1
where [drug] is the concentration of a drug, and FR=I(after drug)/I(control), Eq. 2 where I is the peak current amplitude. If multiple concentrations were used, Ki was determined from the fit of a logistic equation to FRs plotted against corresponding drug concentrations.
In the alternative, the voltage clamp protocol to examine hNav1.7 currents was as follows. […]

Sequence of human Nav1.7 (Q15858 other isoform, or with tags, fused parts or gaps): as above

## NC(=O)c1cc([C@@H](O)CO)nc(-c2ccc(Oc3ccc(C(F)(F)F)cc3)cc2)n1 [compound 18]
[1]
  IC50: 135 ± 28 nM

## C[C@H](NC(=O)c1cc([C@H](O)CO)nc(-c2ccc(Oc3ccc(F)cc3)cc2)n1)C(N)=O [compound 16]
[2]
  Ki: 643 ± 190 nM
  Kd: 154000 ± 54400 nM
[1]
  IC50: 593 ± 4 nM

## N#Cc1ccc(Oc2ccc(-c3nc(C(N)=O)cc([C@@H](O)CO)n3)cc2)cc1C(F)(F)F [compound 12]
[2]
  Ki: 400 ± 90 nM
  Kd: 8670 ± 990 nM
[1]
  IC50: 384 ± 29 nM

## NC(=O)c1cc([C@@H](O)CO)nc(-c2ccc(Oc3ccc(Cl)cc3F)cc2)n1 [compound 9]
[2]
  Ki: 27 ± 0.3 nM
  Kd: 1040 ± 230 nM
[1]
  IC50: 67 ± 5 nM

## N#Cc1ccc(Oc2ccc(-c3nc(C(N)=O)cc([C@H](O)CO)n3)cc2)c(C(F)(F)F)c1 [compound 5]
[1]
  IC50: 526 ± 129 nM

## C[C@H](NC(=O)c1cc([C@H](O)CO)nc(-c2ccc(Oc3ccc(F)cc3)cc2)n1)C(=O)O [compound 15]
[1]
  IC50: > 20000 nM

## NC(=O)c1cc([C@H](O)CO)nc(-c2ccc(Oc3ccc(C(F)(F)F)cn3)cc2)n1 [compound 19]
[1]
  IC50: 325 nM

## N#Cc1ccc(Oc2ccc(-c3nc(C(N)=O)cc([C@H](O)CO)n3)cc2)cc1C(F)(F)F [compound 13]
[2]
  Ki: 195 ± 30 nM
  Kd: 5150 ± 360 nM
[1]
  IC50: 394 ± 19 nM

## COC(=O)[C@H](C)NC(=O)c1cc([C@H](O)CO)nc(-c2ccc(Oc3ccc(F)cc3)cc2)n1 [compound 14]
[1]
  IC50: 1920 ± 401 nM

## NC(=O)c1cc([C@H](O)CO)nc(-c2ccc(Oc3ccc(Cl)cc3F)cc2)n1 [compound 10]
[1]
  IC50: 84 ± 29 nM

## N#Cc1cc(Oc2ccc(-c3nc(C(N)=O)cc([C@H](O)CO)n3)cc2)ccc1C(F)(F)F [compound 11]
[2]
  Ki: 147 ± 30 nM
  Kd: 2010 ± 310 nM
[1]
  IC50: 279 ± 112 nM

## NC(=O)c1cc([C@H](O)CO)nc(-c2ccc(Oc3ccc(C(F)(F)F)cc3)cc2)n1 [compound 17]
[1]
  IC50: 133 ± 26 nM
